According to patent US5877210A, “Phosphotyrosine phosphatase inhibitors or phosphotyrosine kinase activators for controlling cellular proliferation” (priority 1995, dated 1999):
“Also recorded” adds a separate entry of the source. Read-outs that look alike come from different tables or passages of the source.

Legend:
[1] = system: 70Z/3 B cell leukemia cell line; assay: [3H]thymidine incorporation assay; type: cell-based, murine; conditions: 702/3, 5 days
Experimental: The cell lines A20, 70Z-3, L1210, and P388D were used. A20 is a B cell lymphoma cell line; 70Z/3 is a B cell leukemia cell line; L1210 is a T cell leukemia cell line; and P388D is a myeloid leukemia cell line. The cells were grown for 5 days in the presence of pV(phen) and pulsed with [^3 H]-thymidine on day 5. The extent of DNA synthesis was then determined by counting the radioactivity incorporated into the cells, as in Example 5, supra. […] The effects on L1210 cells and P388D cells are particularly noteworthy because these cell lines have been extensively used by the National Cancer Institute to identify anti-cancer drugs.

[2] = system: subcutaneously implanted human ovarian carcinoma, A2780; assay: In vivo antitumor test, A2780
Experimental: Finally, pV(phen) was tested against subcutaneously implanted human ovarian carcinoma, A2780, in Experiment No. 54, using a treatment schedule of once daily for 9 days. Treatments (i.p.) were begun on day 10 post implant when the tumors were small but definite, e.g. […]

PTP1B = target: T1, PTP1B (Homo sapiens, UniProt P18031); assay: Phosphotyrosine phosphatase PTP1B inhibition; type: biochemical
T1 construct: purchased Upstate Biotechnology, Lake Placid, N.Y
T1 sequence (P18031 1-435): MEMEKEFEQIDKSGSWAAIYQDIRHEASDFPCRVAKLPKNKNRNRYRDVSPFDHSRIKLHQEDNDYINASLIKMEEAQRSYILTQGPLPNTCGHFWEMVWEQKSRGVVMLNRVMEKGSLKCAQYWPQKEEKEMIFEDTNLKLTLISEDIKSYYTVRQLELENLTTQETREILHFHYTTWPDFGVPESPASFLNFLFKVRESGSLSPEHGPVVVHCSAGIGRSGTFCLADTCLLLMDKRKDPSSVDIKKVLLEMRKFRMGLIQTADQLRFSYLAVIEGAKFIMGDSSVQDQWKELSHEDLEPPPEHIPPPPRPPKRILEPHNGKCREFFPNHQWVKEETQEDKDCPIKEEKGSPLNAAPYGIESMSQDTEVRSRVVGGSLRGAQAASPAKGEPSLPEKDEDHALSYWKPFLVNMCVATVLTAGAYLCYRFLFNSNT

Jurkat = assay: [3H]thymidine incorporation assay; type: cell-based, human; conditions: for [3H]cpm incorporation: seven days
Experimental: (§1) For each cell type, the cells were passaged uniformly for all drug doses given during the seven-day period. The cells were then pulsed for six hours with [^3 H]thymidine. The extent of DNA synthesis was then determined by counting the radioactivity incorporated into the cells.
(§2) For assays of cellular proliferation, cells were grown five days in the presence of the indicated concentrations of BMLOV, pulsed 6 hr with [^3 H]-thymidine (New England Nuclear, Boston, Mass.), and counted in a liquid scintillation counter. Human peripheral blood lymphocytes (PBL) from normal volunteers were isolated from lymphocyte separation medium (Litton Bionetics, Kensington, Md.) by density gradient centrifugation. Monocytes were depleted from PBL by two rounds of plastic absorption for 30 minutes at 37° C. B cells were enriched for by negative selection using complement plus monoclonal antibodies to CD2, CD3, CD4, and CD8 for complement depletion. Clonogenic assays of colony formation in methylcellulose medium were performed as previously described (F. M. Uckun et al. (1992), supra).

HL-60 = assay: [3H]thymidine incorporation assay; type: cell-based, human; conditions: for [3H]cpm incorporation: seven days
Experimental: as §1, §2

THP-1 = assay: [3H]thymidine incorporation assay; type: cell-based, human; conditions: for [3H]cpm incorporation: seven days
Experimental: as §1, §2

CEM = assay: [3H]thymidine incorporation assay; type: cell-based, human; conditions: for [3H]cpm incorporation: seven days
Experimental: as §1, §2

ZAP-70 = ZAP-70 tyrosine phosphorylation in T cells; type: cell-based; conditions: 16 h BMLOV, anti-CD3 stimulation
Experimental: In the experiments shown in FIG. 25, human PHA-induced T cell blasts were treated overnight with the indicated concentrations of BMLOV. In Panel A, the baseline level of intracellular free Ca^2+ ([Ca^2+ ]i) was established for 1 min, and then the cells were treated with biotinylated anti-CD3 mAb (G19-4). After 5 min avidin was added (gap in the trace) to cross-link the antibody. In Panel B, assays were performed as in Panel A, but in the presence of 5 mM EGTA. […] In the experiments shown in FIG. 26, cells were treated 16 h with BMLOV and then stimulated with anti-CD3 mAb G19-4 for 5 min. Cells were then washed and resuspended in fresh media at equal concentrations of BMLOV at 37° C. Cells were then harvested and lysed at times following the initiation of CD3 stimulation as indicated. Antibody binding in immunoblots was detected by ECL.

[3] = system: peripheral blood lymphocytes (PBL); assay: PBL growth driven by antibody/cytokine stimulation; type: cell-based, human
[4] = system: normal peripheral B cells; conditions: human, 120 h, 25 µM
Experimental: Cell death was measured by staining cells with propidium iodine followed by flow cytometry (EPICS C, Coulter) as previously described (N. K. Damle et al. (1993), supra; Y. Liu & C. A. J. Janeway, "Interferon Gamma Plays a Critical Role in Induced Cell Death of Effector T Cells: A Possible Third Mechanism of Self-Tolerance," J. Exp. Med. 172:1735-1739 (1990)). Flow cytometric data on forward scatter and red fluorescence arising from propidium iodine binding to cellular DNA was collected for 5,000 cells and analyzed by the Quadstat Program (N. K. Damle, (1993), supra). The membranes of dead cells are permeable to propidium iodine (Y. Liu & C. A. Janeway, (1990), supra), but cells undergoing the process of apoptosis can shrink in size while temporarily maintaining plasma membrane integrity (J. J. Cohen et al., "Apoptosis and Programmed Cell Death and Immunity," Annu. Rev. Immunol. 10:267-293 (1992)). […] Only cells displaying normal size and resistance to staining by propidium iodide are considered viable cells and are found in the lower left quadrant (M. K. Damle et al. (1993), supra). The percentage of cells in each quadrant was calculated by the Quadstat program. […]
To provide a final measure of cell death, propidium iodide staining of cells was used. […] Viability was measured by staining with propidium iodide followed by flow cytometric analysis as described above. […]

Ramos B cells = assay: Cell cycle analysis by propidium iodide flow cytometry; type: cell-based, human
Experimental: Ramos B cells treated with various concentrations of BMLOV for 16 hours were examined for their DNA content by propidium iodide staining followed by FACScan flow cytometric analysis using the SFIT program.
Cells were fixed, permeabilized and stained for their DNA content with propidium iodide as previously described (D. H. Pluznik et al., "Colony Stimulating Factor (CSF) Controls Proliferation of CSF-Dependent Cells by Acting During the G1 Phase of the Cell Cycle," Proc. Natl. Acad. Sci. USA 81:7451-7455 (1984)). The stained cells were analyzed by flow cytometry on a FACScan (Becton-Dickinson) instrument. The percentage of cells in various stages of the cell cycle was calculated using the CellFIT program.
In FIG. 14, Ramos cells growing in log phase were treated with BMLOV for 48 hr at the indicated concentrations. DNA in the cells was stained with propidium iodide and quantitated by flow cytometry as described previously. The calculated percentage of cells at the stages of the cell cycle is shown. "A" marks apoptotic cells lacking normal amounts of DNA in the 5 μM dose panel.

[5] = Expt. 54, OD 12 mg/kg/inj, qdx9;10, ip

With `[Na+].[O]=[V-]12([O][O]1)[O][O]2.c1cnc2c(c1)ccc1cccnc12` [pV(phen), sodium (1,10-phenanthroline) oxodiperoxovanadium (V)] the “[3H]-thymidine radioactivity incorporated” value ([1]; 5 μM pV(phen)) was 53 ± 27, the “[3H]-thymidine radioactivity incorporated” value ([1]; 10 μM pV(phen)) was 49 ± 34 and the “LCK (log cell kill)” value [2, 5] was 0.4. For the same compound, the “T-C (delay in primary tumor growth)” value [2, 5] was 4.0 days and the MTD ([2]; once daily for 9 days, i.p., cumulative dose of 45 mg/kg) was 5 mg/kg per injection.

`Cc1occc(=O)c1[O-].Cc1occc(=O)c1[O-].[O]=[V+2]` [BMLOV, Bis(maltolato)oxovanadium (IV)] showed an IC50 (PTP1B) of roughly 25 nM, an IC50 (PTP1B; Table 1, phosphorylated myelin basic protein substrate) of 26 nM and an IC50 (PTP1B; Table 8) of 26 nM. The “[3H]cpm incorporation” value (Jurkat; 1 μM BMLOV) was 149950 cpm, the “[3H]cpm incorporation” value (Jurkat; 5 μM BMLOV) was 118720 cpm and the “[3H]cpm incorporation” value (Jurkat; 10 μM BMLOV) was 98057 cpm. The “[3H]cpm incorporation” value (Jurkat; 25 μM BMLOV) was 26511 cpm, the “sensitivity of proliferation to BMLOV, in words” value (“sensitivity of proliferation” for short) (Jurkat; 25 μM, 5 or 7 days) was “moderately sensitive; also recorded: substantially inhibited” and the “[3H]cpm incorporation” value (HL-60; 1 μM BMLOV) was 191637 cpm. The “[3H]cpm incorporation” value (HL-60; 5 μM BMLOV) was 276505 cpm, the “[3H]cpm incorporation” value (HL-60; 10 μM BMLOV) was 222178 cpm and the “[3H]cpm incorporation” value (HL-60; 25 μM BMLOV) was 11398 cpm. The “sensitivity of proliferation” value (HL-60; 25 μM, 5 or 7 days) was “moderately sensitive; also recorded: showed an inhibition of growth”, the “[3H]cpm incorporation” value (THP-1; 1 μM BMLOV) was 201670 cpm and the “[3H]cpm incorporation” value (THP-1; 5 μM BMLOV) was 178290 cpm. The “[3H]cpm incorporation” value (THP-1; 10 μM BMLOV) was 199993 cpm, the “[3H]cpm incorporation” value (THP-1; 25 μM BMLOV) was 112209 cpm and the “sensitivity of proliferation” value (THP-1; 25 μM, 5 or 7 days) was “only partial sensitivity; also recorded: showed an inhibition of growth”. The “[3H]cpm incorporation” value (CEM; 1 μM BMLOV) was 368721 cpm, the “[3H]cpm incorporation” value (CEM; 5 μM BMLOV) was 403576 cpm and the “[3H]cpm incorporation” value (CEM; 10 μM BMLOV) was 371256 cpm. For the same compound, the “[3H]cpm incorporation” value (CEM; 25 μM BMLOV) was 313714 cpm, the “sensitivity of proliferation” value (CEM; 25 μM, 5 or 7 days) was “resistant; also recorded: only small effects” and the “tyrosine phosphorylation of ZAP-70 or the associated zeta chain” value (ZAP-70) was “little effect was observed”. The “PBL growth driven by anti-CD28 antibody plus IL-2” value ([3]; 1 μM BMLOV) was “markedly inhibited”, the “PBL growth driven by anti-CD3 antibody plus anti-CD28 antibody” value ([3]; 10 μM BMLOV) was “strongly inhibited” and the viable cells [4] was 27%. The “proportion of cells in G2/M” value (Ramos B cells; 0 to 5 μM BMLOV) was “did not change substantially”, the “proportion of cells in G1” value (Ramos B cells; 5 μM BMLOV, control 34%) was 14% and the “proportion of cells in S phase” value (Ramos B cells; 5 μM BMLOV, control 56%) was 77%. For the same compound, the “effect on cell cycle distribution, in words” value (Ramos B cells; 16 hours, 0 to 5 μM BMLOV) was “preferentially deplete the proportion of cells in G1 while increasing the proportion in S phase”.
